ChEMBL document CHEMBL1201862, “PubChem BioAssay data set” (2004)
Activity calls are given as the source filed them.

What was measured:
[1] = molecular target: Voltage-gated N-type calcium channel alpha-1B subunit/Amyloid beta A4 precursor protein-binding family A member 1 (Homo sapiens, UniProt Q00975+Q02410); assay: disruptors of Mint-PDZ/N-type channel peptide interaction – biochemical, HTRF, set 2, SAR follow-up (AID 434980); assay type: functional
Staphylococcus aureus = assay: Inhibitors of Bacterial Quorum Sensing Structure Activity Relationship (SAR) Analysis: Dose Response Assay. [Related pubchem assays: 700, 527 ]; assay type: functional, organism-based
[2] = molecular target: T1, Small ubiquitin-related modifier 1 (Homo sapiens, UniProt P63165); assay: inhibitors of SUMO1 partner interactions, dose response, biochemical, FRET (AID 624383); assay type: functional; conditions: read-out: IC50_Mean
T1 sequence (P63165 whole entry): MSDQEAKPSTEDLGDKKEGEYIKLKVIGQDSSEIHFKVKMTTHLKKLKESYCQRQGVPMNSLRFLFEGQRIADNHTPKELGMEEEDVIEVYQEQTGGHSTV

[3] = Cytotoxicity screening for potential Inhibitors of Bacterial Capsule Biogenesis. [Related pubchem assays (depositor defined):AID488970]; assay type: functional
[4] = test system: Streptococcus sp. 'group A'; assay: growth inhibition of control SK(-) GAS strain, dose response, counter-screen for streptokinase expression inhibitor project, luminescence, kanamycin, BacTiterGlo, confirmation (AID 1900); assay type: functional, organism-based
[5] = molecular target: T2, Small ubiquitin-related modifier 2 (Homo sapiens, UniProt P61956); assay: SUMO2–SIM peptide binding inhibitors, dose response, selectivity assay for SUMO1 interaction inhibitor project, biochemical, fluorescence polarization, uHTS hits (AID 624385); assay type: functional; conditions: read-out: IC50_Mean
T2 sequence (P61956 whole entry): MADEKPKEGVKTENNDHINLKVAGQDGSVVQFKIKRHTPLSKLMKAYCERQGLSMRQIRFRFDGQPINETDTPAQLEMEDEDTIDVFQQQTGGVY

[6] = molecular target: T1, Small ubiquitin-related modifier 1; assay: inhibitors of SUMO1 peptide binding, dose response, biochemical, fluorescence polarization, uHTS hits (AID 624382); assay type: functional; conditions: read-out: IC50_Mean
Streptococcus = assay: Group A Streptococcus viability loss, dose response, counter-screen for streptokinase expression inhibitor project, luminescence, BacTiterGlo (AID 1915); assay type: functional, organism-based;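 also: potency for reduction of bacterial viability or growth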
[7] = HIV-1 Env-mediated cell fusion inhibitors, dose response, CCR5-tropic Env (AID 2279); assay type: functional
[8] = molecular target: T2, Small ubiquitin-related modifier 2; assay: inhibitors of SUMO2 protein-protein interaction, dose response, selectivity assay for SUMO1 interaction inhibitor project, biochemical, FRET, human SUMO2, uHTS hits (AID 624384); assay type: functional; conditions: read-out: IC50_Mean
[9] = molecular target: T3, Scavenger receptor class B member 1 (Mus musculus, UniProt Q61009); assay: inhibitors of SR-BI mediated HDL lipid uptake, dose response, ldlA[mSR-BI] cells, fluorescence, cherry pick (AID 493194); assay type: functional, cell-based;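 also: cellular uptake of fluorescent DiI-labeled HDL measured as cell fluorescence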
T3 sequence (Q61009 whole entry): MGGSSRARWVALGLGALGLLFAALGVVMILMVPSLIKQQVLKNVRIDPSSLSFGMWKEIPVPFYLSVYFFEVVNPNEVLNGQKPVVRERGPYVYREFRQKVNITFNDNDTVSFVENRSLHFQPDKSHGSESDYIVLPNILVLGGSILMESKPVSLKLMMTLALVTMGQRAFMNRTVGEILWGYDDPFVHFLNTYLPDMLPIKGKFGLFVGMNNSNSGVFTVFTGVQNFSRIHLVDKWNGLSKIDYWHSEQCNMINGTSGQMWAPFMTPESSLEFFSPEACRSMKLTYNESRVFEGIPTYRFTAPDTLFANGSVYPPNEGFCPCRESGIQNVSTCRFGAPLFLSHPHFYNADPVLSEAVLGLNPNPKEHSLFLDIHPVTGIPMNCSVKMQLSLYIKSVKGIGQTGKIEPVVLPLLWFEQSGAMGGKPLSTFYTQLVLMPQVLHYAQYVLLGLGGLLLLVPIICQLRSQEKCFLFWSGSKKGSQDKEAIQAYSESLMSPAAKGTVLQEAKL

[10] = inhibitors of SNCA 5'UTR-driven reporter translation, confirmation, H4 neuroglioma cells, luminescence (AID 1988); assay type: functional, cell-based
[11] = HepG2 cell cytotoxicity, dose response, cytotoxicity control for Shn3 inhibitor project, CellTiter-Glo, cherry-picked (AID 624134); assay type: functional, cell-based
[12] = control 3'UTR Renilla luciferase suppression, dose response, counter-screen for Shn3 inhibitor project, cell-based, Clone20-Shn3RL, cherry-picked (AID 624133); assay type: functional
Estrogen receptor = molecular target: T4, Estrogen receptor (Homo sapiens, UniProt P03372);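 also: potency for inhibiting coactivator peptide recruitment to the receptor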
T4 sequence (P03372 whole entry): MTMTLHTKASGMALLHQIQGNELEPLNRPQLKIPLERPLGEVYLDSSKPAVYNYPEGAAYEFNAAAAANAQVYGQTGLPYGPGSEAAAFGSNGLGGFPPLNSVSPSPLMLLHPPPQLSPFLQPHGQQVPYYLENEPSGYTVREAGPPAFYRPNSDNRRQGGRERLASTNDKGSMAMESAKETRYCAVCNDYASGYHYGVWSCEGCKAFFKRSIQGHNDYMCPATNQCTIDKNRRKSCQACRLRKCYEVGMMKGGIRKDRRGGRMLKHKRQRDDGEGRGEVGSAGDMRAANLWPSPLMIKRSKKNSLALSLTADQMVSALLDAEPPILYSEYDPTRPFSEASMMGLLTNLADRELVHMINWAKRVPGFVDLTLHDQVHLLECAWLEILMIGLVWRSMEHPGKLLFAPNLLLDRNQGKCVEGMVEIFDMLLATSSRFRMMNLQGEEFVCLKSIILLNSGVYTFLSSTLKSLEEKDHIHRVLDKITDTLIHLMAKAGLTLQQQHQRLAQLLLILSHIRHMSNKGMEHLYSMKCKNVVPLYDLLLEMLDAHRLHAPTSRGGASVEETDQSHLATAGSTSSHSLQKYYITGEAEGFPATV

[13] = inhibitors of firefly luciferase expression or activity, dose response, H4 neuroglioma cells, luminescence (AID 1990); assay type: functional, cell-based
[14] = Shn3 3'UTR reporter inhibitors, dose response, cell-based, Clone20 osteoblasts, firefly luciferase, cherry-picked (AID 624132); assay type: functional;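 also: firefly luciferase luminescence from reporter carrying the Shn3 3'UTR in osteoblasts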
[15] = molecular target: T5, Heat shock factor protein 1 (Mus musculus, UniProt P38532); assay: inhibition of MG132-induced HSE-luciferase signal, confirmation, cell-based, NIH3T3, luminescence, dose retest (AID 2382); assay type: functional;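 also: NIH3T3 fibroblasts with HSF1-driven luciferase reporter stressed by proteasome inhibitor MG132; luminescence from HSF1-driven luciferase expression after 8 hours of MG132 stress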
T5 sequence (P38532 whole entry): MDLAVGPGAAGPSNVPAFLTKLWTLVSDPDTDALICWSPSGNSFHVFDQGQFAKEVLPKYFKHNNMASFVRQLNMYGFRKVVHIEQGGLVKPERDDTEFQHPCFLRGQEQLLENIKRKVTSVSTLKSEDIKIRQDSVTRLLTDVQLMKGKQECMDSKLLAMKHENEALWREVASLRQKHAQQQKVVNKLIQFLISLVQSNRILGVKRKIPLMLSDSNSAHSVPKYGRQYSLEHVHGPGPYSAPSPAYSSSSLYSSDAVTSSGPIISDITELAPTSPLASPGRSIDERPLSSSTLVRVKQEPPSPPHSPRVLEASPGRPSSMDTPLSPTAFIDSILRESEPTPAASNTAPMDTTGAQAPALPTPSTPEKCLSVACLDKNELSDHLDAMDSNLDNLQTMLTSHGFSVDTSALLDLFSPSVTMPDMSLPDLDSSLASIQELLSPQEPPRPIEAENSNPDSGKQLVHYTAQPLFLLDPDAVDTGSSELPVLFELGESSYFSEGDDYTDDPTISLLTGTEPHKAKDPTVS

[16] = Luminescence Cell-Based Dose Response HTS to Identify Inhibitors of 5'UTR Stem-Loop Driven Prion Protein mRNA Translation in H4 Neuroglioblastoma Cells. [Related pubchem assays: 1827 (Project Summary), 1813 (Primary HTS)]; assay type: functional

Voltage-gated N-type calcium channel alpha-1B subunit/Amyloid beta A4 precursor protein-binding family A member 1, sequence (Q00975 whole entry): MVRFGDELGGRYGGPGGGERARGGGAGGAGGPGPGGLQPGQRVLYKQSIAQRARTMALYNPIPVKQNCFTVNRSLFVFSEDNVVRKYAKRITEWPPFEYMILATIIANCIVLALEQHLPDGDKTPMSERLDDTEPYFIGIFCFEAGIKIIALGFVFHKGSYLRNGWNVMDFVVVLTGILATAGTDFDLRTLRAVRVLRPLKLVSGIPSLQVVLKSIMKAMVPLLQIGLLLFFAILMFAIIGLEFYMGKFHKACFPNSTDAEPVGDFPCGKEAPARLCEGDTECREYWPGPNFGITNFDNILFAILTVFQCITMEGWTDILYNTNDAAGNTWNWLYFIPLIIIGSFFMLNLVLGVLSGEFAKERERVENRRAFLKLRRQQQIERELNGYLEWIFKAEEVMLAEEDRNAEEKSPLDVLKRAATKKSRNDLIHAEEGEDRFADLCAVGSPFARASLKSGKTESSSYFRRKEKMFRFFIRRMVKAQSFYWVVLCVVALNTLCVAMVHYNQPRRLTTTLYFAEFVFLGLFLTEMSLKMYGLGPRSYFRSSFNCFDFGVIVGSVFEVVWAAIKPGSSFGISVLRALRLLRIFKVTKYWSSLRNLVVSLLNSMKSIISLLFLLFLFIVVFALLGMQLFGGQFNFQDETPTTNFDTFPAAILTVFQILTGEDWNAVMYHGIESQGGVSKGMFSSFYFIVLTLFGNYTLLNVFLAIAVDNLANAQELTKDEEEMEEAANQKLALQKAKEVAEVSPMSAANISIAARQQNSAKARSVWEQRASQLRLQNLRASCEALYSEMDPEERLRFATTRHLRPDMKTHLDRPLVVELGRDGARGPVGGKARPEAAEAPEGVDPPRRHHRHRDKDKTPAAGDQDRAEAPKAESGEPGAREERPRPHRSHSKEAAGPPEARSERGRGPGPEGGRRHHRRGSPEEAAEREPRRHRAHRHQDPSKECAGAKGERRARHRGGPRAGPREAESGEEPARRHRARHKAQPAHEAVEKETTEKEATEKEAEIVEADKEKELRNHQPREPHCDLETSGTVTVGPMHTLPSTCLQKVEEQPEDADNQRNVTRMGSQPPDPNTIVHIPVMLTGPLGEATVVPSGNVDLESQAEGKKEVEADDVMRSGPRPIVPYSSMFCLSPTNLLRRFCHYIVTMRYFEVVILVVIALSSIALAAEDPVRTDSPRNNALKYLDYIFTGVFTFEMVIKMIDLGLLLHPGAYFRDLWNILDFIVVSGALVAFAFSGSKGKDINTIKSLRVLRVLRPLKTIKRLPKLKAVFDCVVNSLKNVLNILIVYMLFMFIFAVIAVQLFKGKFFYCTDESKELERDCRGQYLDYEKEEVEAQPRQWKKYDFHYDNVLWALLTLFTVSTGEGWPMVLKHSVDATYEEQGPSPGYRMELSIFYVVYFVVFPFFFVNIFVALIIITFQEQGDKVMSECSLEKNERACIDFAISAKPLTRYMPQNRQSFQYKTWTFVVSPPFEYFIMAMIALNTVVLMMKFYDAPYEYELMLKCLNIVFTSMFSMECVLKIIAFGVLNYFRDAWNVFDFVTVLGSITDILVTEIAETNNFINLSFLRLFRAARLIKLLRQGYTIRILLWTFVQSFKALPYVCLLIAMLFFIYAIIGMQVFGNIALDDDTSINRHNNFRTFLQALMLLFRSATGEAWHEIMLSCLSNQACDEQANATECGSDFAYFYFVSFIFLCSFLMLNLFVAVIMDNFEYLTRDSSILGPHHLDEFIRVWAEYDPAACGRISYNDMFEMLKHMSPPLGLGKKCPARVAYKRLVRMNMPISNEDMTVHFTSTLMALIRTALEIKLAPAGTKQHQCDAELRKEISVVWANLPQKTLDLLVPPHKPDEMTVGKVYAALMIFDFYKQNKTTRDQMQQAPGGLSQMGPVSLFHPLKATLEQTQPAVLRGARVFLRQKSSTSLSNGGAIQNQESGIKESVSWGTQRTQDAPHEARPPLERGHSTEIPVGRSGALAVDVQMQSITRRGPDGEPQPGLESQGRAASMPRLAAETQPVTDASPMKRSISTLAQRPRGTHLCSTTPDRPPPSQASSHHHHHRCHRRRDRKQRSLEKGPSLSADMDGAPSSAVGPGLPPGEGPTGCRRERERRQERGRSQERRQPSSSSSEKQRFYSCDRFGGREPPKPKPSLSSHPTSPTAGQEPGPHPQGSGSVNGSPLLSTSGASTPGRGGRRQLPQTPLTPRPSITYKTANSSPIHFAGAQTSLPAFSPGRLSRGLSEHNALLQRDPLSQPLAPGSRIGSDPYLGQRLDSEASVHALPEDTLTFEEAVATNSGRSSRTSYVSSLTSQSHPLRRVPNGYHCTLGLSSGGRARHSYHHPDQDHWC
Voltage-gated N-type calcium channel alpha-1B subunit/Amyloid beta A4 precursor protein-binding family A member 1, sequence (Q02410 whole entry): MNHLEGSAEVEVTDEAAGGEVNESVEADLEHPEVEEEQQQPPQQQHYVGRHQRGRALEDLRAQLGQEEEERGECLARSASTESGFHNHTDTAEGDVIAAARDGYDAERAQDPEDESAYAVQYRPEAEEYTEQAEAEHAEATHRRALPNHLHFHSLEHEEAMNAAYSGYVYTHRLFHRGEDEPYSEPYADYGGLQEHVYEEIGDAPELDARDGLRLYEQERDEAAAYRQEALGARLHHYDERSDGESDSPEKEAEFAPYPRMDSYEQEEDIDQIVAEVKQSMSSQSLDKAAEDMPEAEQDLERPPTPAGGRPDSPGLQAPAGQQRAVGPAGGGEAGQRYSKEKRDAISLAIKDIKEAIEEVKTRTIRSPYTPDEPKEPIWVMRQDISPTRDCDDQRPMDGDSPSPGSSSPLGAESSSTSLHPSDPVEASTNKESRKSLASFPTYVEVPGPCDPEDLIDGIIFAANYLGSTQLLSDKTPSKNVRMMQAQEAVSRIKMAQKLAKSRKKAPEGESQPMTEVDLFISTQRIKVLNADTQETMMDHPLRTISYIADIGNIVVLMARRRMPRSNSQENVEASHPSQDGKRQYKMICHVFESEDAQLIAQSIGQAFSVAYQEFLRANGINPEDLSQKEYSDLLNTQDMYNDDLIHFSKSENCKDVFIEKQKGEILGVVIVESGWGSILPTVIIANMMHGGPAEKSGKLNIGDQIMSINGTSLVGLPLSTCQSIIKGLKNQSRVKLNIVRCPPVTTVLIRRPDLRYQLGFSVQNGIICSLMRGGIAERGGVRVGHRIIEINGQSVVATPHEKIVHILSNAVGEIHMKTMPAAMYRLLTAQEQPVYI

Compound: CN(C)CCNC(=O)c1cc(-c2ccco2)nc2ccccc12
- IC50 [1]: > 56.8 µM (inactive)

Compound: N#Cc1c(NC(=O)CN2C(=O)c3ccccc3C2=O)oc(-c2ccccc2)c1-c1ccccc1
- IC50 (Staphylococcus aureus): 1.99 µM (active)

Compound: O=C(COc1ccc(Cl)cc1Cl)Nc1ccc(C(=O)Nc2ccccc2C(=O)O)cc1
- IC50 [2]: 11.3 µM (active)
- CC50 [3]: 45.3 µM (active)
- EC50 [4]: 3.72 µM (active)
- IC50 [5]: 13.3 µM (active)
- IC50 [6]: 2.7 µM (active)
- EC50 (Streptococcus): > 150 µM (not active)
- IC50 [7]: > 50 µM (active)
- IC50 [8]: 48.1 µM (inactive)

Compound: CCOc1cc(N2CCOCC2)c(OCC)cc1NC(=O)c1cc(-c2ccco2)nc2ccccc12
- AC50 [9]: 46.2 µM (active)
- EC50 [10]: 7.84 µM (active)
- AC50 [11]: 53.5 µM (active)
- AC50 [12]: 9.78 µM (active)
- IC50 (Estrogen receptor): 14.7 µM (active)
- EC50 [13]: > 120 µM (not active)
- AC50 [14]: 8.94 µM (active)
- EC50 [15]: 1.21 µM (active)
- EC50 [16]: > 120 µM (not active)
